Tests used:
Conditions in all cases: 48 h
NOMO1 [1] = assay: cell viability relative to DMSO control; higher = less cytotoxic
In short: (§1)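 NOMO1 or SEM cells were plated at 500 cells/well and P12-Ichikawa cells at 1000 cells/well in 1536-well plates (5 μl), after each leukemia line had been adapted for at least four passages in each medium. Pin dosing delivered library compounds in DMSO at 11 threefold concentrations, 47 μM to 0.79 nM. CellTiter-Glo One luminescence was read after 48 h at 37°C. Viability is reported as a per-plate percentage of DMSO wells, with cell-free wells as background.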

P12-Ichikawa [2] = assay: as above
In short: as §1

SEM cells [3] = assay: as above
In short: as §1

NOMO1 [4] = assay: AUC of viability dose-response curve (% viability x log10 dose units); higher = less sensitive
In short: (§2)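 Leukemia cells adapted to each medium (500 or 1000 cells/well, 1536-well plates) were exposed to library compounds in DMSO for 48 h at 37°C at 11 threefold doses, 47 μM to 0.79 nM. Luminescence by CellTiter-Glo One was normalised per plate to DMSO and cell-free wells, then fitted with a four-parameter log-logistic curve on log10 dose. Curves above full viability were scaled and quality-control failures removed before area under the curve was integrated by trapezoidal rule.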

P12-Ichikawa [5] = assay: as above
In short: as §2

SEM cells [6] = assay: as above
In short: as §2

COc1cc2c(cc1OC)C1CC(=O)C(CC(C)C)CN1CC2 (stereo not drawn)
cell viability [%]
Conditions | NOMO1 [1] | P12-Ichikawa [2] | SEM cells [3]
HPLM + 10% dialyzed FBS, 0.000781 µM | – | 122 | 84.5
HPLM + 10% dialyzed FBS, 0.00234 µM | – | 122 | 116
HPLM + 10% dialyzed FBS, 0.00702 µM | – | 116 | 99.6
HPLM + 10% dialyzed FBS, 0.0211 µM | – | 118 | 107
HPLM + 10% dialyzed FBS, 0.0632 µM | – | 113 | 98.4
HPLM + 10% dialyzed FBS, 0.19 µM | – | 127 | 100
HPLM + 10% dialyzed FBS, 0.569 µM | – | 117 | 118
HPLM + 10% dialyzed FBS, 1.71 µM | – | 122 | 110
HPLM + 10% dialyzed FBS, 5.12 µM | – | 116 | 112
HPLM + 10% dialyzed FBS, 15.4 µM | – | 114 | 103
HPLM + 10% dialyzed FBS, 46.1 µM | – | 106 | 96.5
RPMI 5 mM glucose + 10% FBS, 0.000781 µM | 116 | – | 116
RPMI 5 mM glucose + 10% FBS, 0.00234 µM | 106 | – | 114
RPMI 5 mM glucose + 10% FBS, 0.00702 µM | 106 | – | 110
RPMI 5 mM glucose + 10% FBS, 0.0211 µM | 104 | – | 118
RPMI 5 mM glucose + 10% FBS, 0.0632 µM | 134 | – | 103
RPMI 5 mM glucose + 10% FBS, 0.19 µM | 117 | – | 110
RPMI 5 mM glucose + 10% FBS, 0.569 µM | 116 | – | 114
RPMI 5 mM glucose + 10% FBS, 1.71 µM | 104 | – | 118
RPMI 5 mM glucose + 10% FBS, 5.12 µM | 113 | – | 118
RPMI 5 mM glucose + 10% FBS, 15.4 µM | 113 | – | 116
RPMI 5 mM glucose + 10% FBS, 46.1 µM | 103 | – | 109
RPMI 5 mM glucose + 10% dialyzed FBS, 0.000781 µM | 117 | 117 | 120
RPMI 5 mM glucose + 10% dialyzed FBS, 0.00234 µM | 133 | 119 | 140
RPMI 5 mM glucose + 10% dialyzed FBS, 0.00702 µM | 109 | 121 | 113
RPMI 5 mM glucose + 10% dialyzed FBS, 0.0211 µM | 115 | 124 | 117
RPMI 5 mM glucose + 10% dialyzed FBS, 0.0632 µM | 148 | 122 | 97.1
RPMI 5 mM glucose + 10% dialyzed FBS, 0.19 µM | 124 | 125 | 129
RPMI 5 mM glucose + 10% dialyzed FBS, 0.569 µM | 128 | 118 | 111
RPMI 5 mM glucose + 10% dialyzed FBS, 1.71 µM | 121 | 125 | 129
RPMI 5 mM glucose + 10% dialyzed FBS, 5.12 µM | 115 | 109 | 124
RPMI 5 mM glucose + 10% dialyzed FBS, 15.4 µM | 110 | 115 | 119
RPMI 5 mM glucose + 10% dialyzed FBS, 46.1 µM | 125 | 102 | 103

AUC of viability dose-response curve
Conditions | NOMO1 [4] | P12-Ichikawa [5] | SEM cells [6]
HPLM + 10% dialyzed FBS | 448 | 459 | 471
RPMI 5 mM glucose + 10% FBS | 470 | 459 | 476
RPMI 5 mM glucose + 10% dialyzed FBS | 469 | 466 | 459

Cc1cn2c(-c3cn[nH]c3)cnc2c(Nc2ccc(C(=O)N3CCNCC3)cc2F)n1
cell viability [%]
Conditions | NOMO1 [1] | P12-Ichikawa [2] | SEM cells [3]
HPLM + 10% dialyzed FBS, 0.000781 µM | 109 | 98.2 | 105
HPLM + 10% dialyzed FBS, 0.00234 µM | 102 | 104 | 106
HPLM + 10% dialyzed FBS, 0.00702 µM | 114 | 100 | 119
HPLM + 10% dialyzed FBS, 0.0211 µM | 107 | 99.8 | 103
HPLM + 10% dialyzed FBS, 0.0632 µM | 96.5 | 101 | 109
HPLM + 10% dialyzed FBS, 0.19 µM | 100 | 103 | 105
HPLM + 10% dialyzed FBS, 0.569 µM | 112 | 104 | 107
HPLM + 10% dialyzed FBS, 1.71 µM | 82.7 | 97.7 | 108
HPLM + 10% dialyzed FBS, 5.12 µM | 91.2 | 91.9 | 87.8
HPLM + 10% dialyzed FBS, 15.4 µM | 70 | 73.4 | 45.9
HPLM + 10% dialyzed FBS, 46.1 µM | 34 | 43.5 | 17
RPMI 5 mM glucose + 10% FBS, 0.000781 µM | 105 | 105 | 98.7
RPMI 5 mM glucose + 10% FBS, 0.00234 µM | 91.6 | 98.3 | 99.8
RPMI 5 mM glucose + 10% FBS, 0.00702 µM | 101 | 95.7 | 107
RPMI 5 mM glucose + 10% FBS, 0.0211 µM | 88 | 91.8 | 98.5
RPMI 5 mM glucose + 10% FBS, 0.0632 µM | 88.3 | 103 | 112
RPMI 5 mM glucose + 10% FBS, 0.19 µM | 88 | 96.8 | 114
RPMI 5 mM glucose + 10% FBS, 0.569 µM | 89.2 | 95.1 | 96.7
RPMI 5 mM glucose + 10% FBS, 1.71 µM | 85.3 | 96.9 | 109
RPMI 5 mM glucose + 10% FBS, 5.12 µM | 86.2 | 90.4 | 90.6
RPMI 5 mM glucose + 10% FBS, 15.4 µM | 78.7 | 74.6 | 48.3
RPMI 5 mM glucose + 10% FBS, 46.1 µM | 36.1 | 49.2 | 11.8
RPMI 5 mM glucose + 10% dialyzed FBS, 0.000781 µM | 89.2 | 104 | 107
RPMI 5 mM glucose + 10% dialyzed FBS, 0.00234 µM | 93 | 105 | 104
RPMI 5 mM glucose + 10% dialyzed FBS, 0.00702 µM | 93.8 | 102 | 105
RPMI 5 mM glucose + 10% dialyzed FBS, 0.0211 µM | 98.1 | 99.5 | 99.5
RPMI 5 mM glucose + 10% dialyzed FBS, 0.0632 µM | 88.7 | 105 | 122
RPMI 5 mM glucose + 10% dialyzed FBS, 0.19 µM | 98.8 | 107 | 102
RPMI 5 mM glucose + 10% dialyzed FBS, 0.569 µM | 92.5 | 109 | 114
RPMI 5 mM glucose + 10% dialyzed FBS, 1.71 µM | 93.1 | 95.6 | 98.2
RPMI 5 mM glucose + 10% dialyzed FBS, 5.12 µM | 80.5 | 94.4 | 91.7
RPMI 5 mM glucose + 10% dialyzed FBS, 15.4 µM | 62.5 | 65.3 | 49.9
RPMI 5 mM glucose + 10% dialyzed FBS, 46.1 µM | 29.9 | 42.5 | 9.99

AUC of viability dose-response curve
Conditions | NOMO1 [4] | P12-Ichikawa [5] | SEM cells [6]
HPLM + 10% dialyzed FBS | 430 | 444 | 419
RPMI 5 mM glucose + 10% FBS | 417 | 440 | 424
RPMI 5 mM glucose + 10% dialyzed FBS | 409 | 439 | 421

CN(Cc1cnc2nc(N)nc(N)c2n1)c1ccc(C(=O)N[C@@H](CCC(=O)O)C(=O)O)cc1
Conditions | cell viability [%]
NOMO1 [1], RPMI 5 mM glucose + 10% FBS, 0.000781 µM | 116
NOMO1 [1], RPMI 5 mM glucose + 10% FBS, 0.00234 µM | 125
NOMO1 [1], RPMI 5 mM glucose + 10% FBS, 0.00702 µM | 123
NOMO1 [1], RPMI 5 mM glucose + 10% FBS, 0.0211 µM | 135
NOMO1 [1], RPMI 5 mM glucose + 10% FBS, 0.0632 µM | 121
NOMO1 [1], RPMI 5 mM glucose + 10% FBS, 0.19 µM | 136
NOMO1 [1], RPMI 5 mM glucose + 10% FBS, 0.569 µM | 107
NOMO1 [1], RPMI 5 mM glucose + 10% FBS, 1.71 µM | 104
NOMO1 [1], RPMI 5 mM glucose + 10% FBS, 5.12 µM | 73.1
NOMO1 [1], RPMI 5 mM glucose + 10% FBS, 15.4 µM | 26.7
NOMO1 [1], RPMI 5 mM glucose + 10% FBS, 46.1 µM | 24.4
SEM cells [3], HPLM + 10% dialyzed FBS, 0.000781 µM | 115
SEM cells [3], HPLM + 10% dialyzed FBS, 0.00234 µM | 141
SEM cells [3], HPLM + 10% dialyzed FBS, 0.00702 µM | 122
SEM cells [3], HPLM + 10% dialyzed FBS, 0.0211 µM | 133
SEM cells [3], HPLM + 10% dialyzed FBS, 0.0632 µM | 119
SEM cells [3], HPLM + 10% dialyzed FBS, 0.19 µM | 53.5
SEM cells [3], HPLM + 10% dialyzed FBS, 0.569 µM | 43
SEM cells [3], HPLM + 10% dialyzed FBS, 1.71 µM | 37
SEM cells [3], HPLM + 10% dialyzed FBS, 5.12 µM | 25.7
SEM cells [3], HPLM + 10% dialyzed FBS, 15.4 µM | 18
SEM cells [3], HPLM + 10% dialyzed FBS, 46.1 µM | 15.2

AUC of viability dose-response curve
Conditions | NOMO1 [4] | P12-Ichikawa [5] | SEM cells [6]
HPLM + 10% dialyzed FBS | 304 | 245 | 277
RPMI 5 mM glucose + 10% FBS | 390 | 277 | 328
RPMI 5 mM glucose + 10% dialyzed FBS | 278 | 258 | 249

C[C@H](O)[C@H]1[C@@H]2[C@H](C)C(=C(\N2C1=O)C(O)=O)/S[C@@H]3CN[C@H](CN[S+](N)([O-])=O)C3
cell viability [%]
Conditions | P12-Ichikawa [2] | SEM cells [3]
HPLM + 10% dialyzed FBS, 0.000781 µM | 118 | 116
HPLM + 10% dialyzed FBS, 0.00234 µM | 125 | 121
HPLM + 10% dialyzed FBS, 0.00702 µM | 132 | 122
HPLM + 10% dialyzed FBS, 0.0211 µM | 129 | 130
HPLM + 10% dialyzed FBS, 0.0632 µM | 124 | 132
HPLM + 10% dialyzed FBS, 0.19 µM | 125 | 113
HPLM + 10% dialyzed FBS, 0.569 µM | 124 | 108
HPLM + 10% dialyzed FBS, 1.71 µM | 121 | 108
HPLM + 10% dialyzed FBS, 5.12 µM | 121 | 100
HPLM + 10% dialyzed FBS, 15.4 µM | 113 | 108
HPLM + 10% dialyzed FBS, 46.1 µM | 104 | 111
RPMI 5 mM glucose + 10% FBS, 0.000781 µM | 123 | 124
RPMI 5 mM glucose + 10% FBS, 0.00234 µM | 126 | 123
RPMI 5 mM glucose + 10% FBS, 0.00702 µM | 123 | 136
RPMI 5 mM glucose + 10% FBS, 0.0211 µM | 128 | 128
RPMI 5 mM glucose + 10% FBS, 0.0632 µM | 124 | 132
RPMI 5 mM glucose + 10% FBS, 0.19 µM | 122 | 115
RPMI 5 mM glucose + 10% FBS, 0.569 µM | 123 | 125
RPMI 5 mM glucose + 10% FBS, 1.71 µM | 111 | 112
RPMI 5 mM glucose + 10% FBS, 5.12 µM | 117 | 120
RPMI 5 mM glucose + 10% FBS, 15.4 µM | 103 | 118
RPMI 5 mM glucose + 10% FBS, 46.1 µM | 105 | 109

AUC of viability dose-response curve
Conditions | NOMO1 [4] | P12-Ichikawa [5] | SEM cells [6]
HPLM + 10% dialyzed FBS | 439 | 465 | 443
RPMI 5 mM glucose + 10% FBS | 443 | 455 | 453
RPMI 5 mM glucose + 10% dialyzed FBS | 452 | 447 | 420
